# In ChEMBL document CHEMBL5352436, “Triterpenoid pyrazines and pyridines - Synthesis, cytotoxicity, mechanism of action, preparation of prodrugs” (Eur J Med Chem, 2022):
# Calls of active or inactive are those of the source. The calls are words filed in the database; no cut-off is given here.
# Key:
# [1] = Cytotoxicity against human BJ cells assessed as reduction in cell viability incubated for 72 hrs by MTS assay; format: toxicity, cell-based
# [2] = Cytotoxicity against human MRC5 cells assessed as reduction in cell viability incubated for 72 hrs by MTS assay; format: toxicity, cell-based
# [3] = Drug localization in human CCRF-CEM cells assessed as MT-CO2 signal at 10 uM incubated for 4 hrs by click reaction analysis; format: ADME, cell-based
# [4] = Cytotoxicity against human HCT116-p53-null cells assessed as reduction in cell viability incubated for 72 hrs by MTS assay; format: functional, cell-based
# U2OS = experiment: Cytotoxicity against human U2OS cells assessed as reduction in cell viability incubated for 72 hrs by MTS assay; format: functional, cell-based
# A549 = experiment: Cytotoxicity against human A549 cells assessed as reduction in cell viability incubated for 72 hrs by MTS assay; format: functional, cell-based; settings: A549, 72 h
# [5] = Cytotoxicity against human K562-Tax cells assessed as reduction in cell viability incubated for 72 hrs by MTS assay; format: functional, cell-based
# CCRF-CEM [6] = experiment: Cytotoxicity against human CCRF-CEM cells assessed as reduction in cell viability incubated for 72 hrs by MTS assay; format: functional, cell-based
# HCT-116 [7] = experiment: Cytotoxicity against human HCT-116 cells assessed as reduction in cell viability incubated for 72 hrs by MTS assay; format: functional, cell-based; settings: HCT-116, 72 h
# K562 = experiment: Cytotoxicity against human K562 cells assessed as reduction in cell viability incubated for 72 hrs by MTS assay; format: functional, cell-based; settings: K562, 72 h
# CEM-DNR = experiment: Cytotoxicity against human CEM-DNR cells assessed as reduction in cell viability incubated for 72 hrs by MTS assay; format: functional, cell-based
# CCRF-CEM [8] = experiment: Induction of apoptosis in human CCRF-CEM cells assessed as early apoptotic cells at 1 time IC50 incubated for 24 hrs by Annexin V and propidium iodide staining based flow cytometry analysis (reference value: […]); format: functional
# CCRF-CEM [9] = experiment: Induction of mitochondrial damage in human CCRF-CEM cells at >= 10 uM incubated for 4 hrs by light microscopic analysis; format: functional, cell-based
# CCRF-CEM [10] = experiment: Induction of apoptosis in human CCRF-CEM cells assessed as early apoptotic cells at 5 times IC50 incubated for 24 hrs by Annexin V and propidium iodide staining based flow cytometry analysis […]; format: functional
# HCT-116 [11] = experiment: Antitumor activity in human HCT-116 cells cultured as spheroids assessed as inhibition of cell growth at 10 uM incubated for 3 days; format: functional; set-up: scale not given: the % may be the effect or the level left; settings: time 3 day
# CCRF-CEM [12] = experiment: Induction of apoptosis in human CCRF-CEM cells assessed as necrotic cells at 1 time IC50 incubated for 24 hrs by Annexin V and propidium iodide staining based flow cytometry analysis (reference value: 0.0%); format: functional
# CCRF-CEM [13] = experiment: Induction of apoptosis in human CCRF-CEM cells assessed as necrotic cells at 5 times IC50 incubated for 24 hrs by Annexin V and propidium iodide staining based flow cytometry analysis […]; format: functional
# HeLa = experiment: Antitumor activity in human HeLa cells cultured as spheroids assessed as inhibition of spheroid opening at 1 uM incubated for 3 days; format: functional, cell-based; settings: time 3.0 day
# CCRF-CEM [14] = experiment: Induction of apoptosis in human CCRF-CEM cells assessed as late apoptotic cells at 1 time IC50 incubated for 24 hrs by Annexin V and propidium iodide staining based flow cytometry analysis (reference value: […]); format: functional
# CCRF-CEM [15] = experiment: Induction of apoptosis in human CCRF-CEM cells assessed as late apoptotic cells at 5 times IC50 incubated for 24 hrs by Annexin V and propidium iodide staining based flow cytometry analysis […]; format: functional
# CCRF-CEM [16] = experiment: Induction of apoptosis in human CCRF-CEM cells assessed as viable cells at 5 times IC50 incubated for 24 hrs by Annexin V and propidium iodide staining based flow cytometry analysis […]; format: functional
# CCRF-CEM [17] = experiment: Induction of apoptosis in human CCRF-CEM cells assessed as viable cells at 1 time IC50 incubated for 24 hrs by Annexin V and propidium iodide staining based flow cytometry analysis […]; format: functional
# CCRF-CEM [18] = experiment: Induction of mitochondrial changes in human CCRF-CEM cells at 10 uM incubated for 4 hrs by electron microscopic analysis; format: functional, cell-based
# CCRF-CEM [19] = experiment: Induction of apoptosis in human CCRF-CEM cells assessed as decrease in c-Myc expression at 1 to 5 times IC50 incubated for 24 hrs by Western blot analysis; format: functional, cell-based
# CCRF-CEM [20] = experiment: Induction of apoptosis in human CCRF-CEM cells assessed as accumulation of Bax protein expression at 1 to 5 times IC50 incubated for 24 hrs by Western blot analysis; format: functional, cell-based
# CCRF-CEM [21] = experiment: Induction of apoptosis in human CCRF-CEM cells assessed as accumulation of Bid protein expression at 1 to 5 times IC50 incubated for 24 hrs by Western blot analysis; format: functional, cell-based
# CCRF-CEM [22] = experiment: Induction of apoptosis in human CCRF-CEM cells assessed as increase in Noxa expression at 1 to 5 times IC50 incubated for 24 hrs by Western blot analysis; format: functional, cell-based
# CCRF-CEM [23] = experiment: Induction of apoptosis in human CCRF-CEM cells assessed as PARP cleavage at 1 to 5 times IC50 incubated for 24 hrs by Western blot analysis; format: functional, cell-based
# [24] = Efflux ratio of apparent permeability across basolateral to apical side over apical to basolateral side in MDCK-MDR1 cells; format: ADME, cell-based, Canis lupus familiaris; settings: dog
# [25] = Stability in human plasma assessed as compound remaining at 2 uM measured at 120 mins by RF-MS analysis; format: ADME, cell-free; settings: read-out: Stability
# [26] = Plasma protein binding in human at 10 uM by rapid equilibrium dialysis based RF-MS analysis; format: ADME, cell-free; settings: read-out: PB (converted)
# [27] = Stability in human liver microsomes assessed as compound remaining at 2 uM measured at 30 mins in presence of NADPH by RF-MS analysis; format: ADME, Microsome; settings: read-out: Stability
# [28] = Stability in human plasma assessed as compound remaining at 2 uM measured at 30 mins by RF-MS analysis; format: ADME, cell-free; settings: read-out: Stability
# [29] = Stability in human plasma assessed as compound remaining at 2 uM measured at 15 mins by RF-MS analysis; format: ADME, cell-free; settings: read-out: Stability
# [30] = Chemical stability in PBS buffer at pH 7.4 assessed as compound remaining measured at 30 mins by RF-MS analysis; format: physicochemical; settings: read-out: Stability
# [31] = Apparent permeability of the compound in MDCK-MDR1 cells assessed as drug recovery at 10 uM incubated for 1 hr by RF-MS analysis; format: ADME, cell-based, Canis lupus familiaris; settings: dog, read-out: Drug recovery
# [32] = Chemical stability in PBS buffer at pH 7.4 assessed as compound remaining measured at 15 mins by RF-MS analysis; format: physicochemical; settings: read-out: Stability
# [33] = Stability in human liver microsomes assessed as compound remaining at 2 uM measured at 15 mins in presence of NADPH by RF-MS analysis; format: ADME, Microsome; settings: read-out: Stability
# [34] = Apparent permeability of the compound in MDCK-MDR1 cells at 10 uM incubated for 1 hr by RF-MS analysis; format: ADME, cell-based, Canis lupus familiaris; settings: dog
# [35] = Stability in human liver microsomes assessed as compound remaining at 2 uM measured at 60 mins in presence of NADPH by RF-MS analysis; format: ADME, Microsome; settings: read-out: Stability
# [36] = Stability in human plasma assessed as compound remaining at 2 uM measured at 60 mins by RF-MS analysis; format: ADME, cell-free; settings: read-out: Stability
# [37] = Chemical stability in PBS buffer at pH 7.4 assessed as compound remaining measured at 120 mins by RF-MS analysis; format: physicochemical; settings: read-out: Stability
# [38] = Chemical stability in PBS buffer at pH 7.4 assessed as compound remaining measured at 60 mins by RF-MS analysis; format: physicochemical; settings: read-out: Stability
Structure (SMILES),IC50 at 72 h [1] [µM],IC50 at 72 h [2] [µM],IC50 [4] [µM],IC50 (U2OS) [µM],IC50 (A549) [µM],IC50 [5] [µM],IC50 (CCRF-CEM [6]) [µM],IC50 (HCT-116 [7]) [µM],IC50 (K562) [µM],IC50 (CEM-DNR) [µM],Activity (CCRF-CEM [8]) [%],Activity (CCRF-CEM [10]) [%],Activity (HCT-116 [11]) [%],Activity (CCRF-CEM [12]) [%],Activity (CCRF-CEM [13]) [%],Activity (HeLa),Activity (CCRF-CEM [14]) [%],Activity (CCRF-CEM [15]) [%],Activity (CCRF-CEM [16]) [%],Activity (CCRF-CEM [17]) [%],also measured
C#CCOC(=O)[C@]12CC[C@@H](C(=C)C)[C@@H]1[C@H]1CC[C@@H]3[C@@]4(C)Cc5nccnc5C(C)(C)[C@@H]4CC[C@@]3(C)[C@]1(C)CC2,> 50,> 50,> 50,> 50,> 50,> 50,45,> 50,> 50,50,–,–,–,–,–,–,–,–,–,–,Drug uptake [3]: Not Active
C#CCOC(=O)[C@]12CC[C@@H](C(=C)C=O)[C@@H]1[C@H]1CC[C@@H]3[C@@]4(C)Cc5nccnc5C(C)(C)[C@@H]4CC[C@@]3(C)[C@]1(C)CC2,7.2,6.6,6.3,1.4,1.7,1.4,0.43,7,1.6,1.7,–,–,–,–,–,–,–,–,–,–,Drug uptake [3]: Active
C=C(C)[C@@H]1CC[C@]2(C(=O)O)CC[C@]3(C)[C@H](CC[C@@H]4[C@@]5(C)Cc6nccnc6C(C)(C)[C@@H]5CC[C@]43C)[C@@H]12,–,–,–,–,–,–,–,–,–,–,1.7,0.8,100,3.7,4.5,Active,2.2,2.6,92,92.3,Activity (CCRF-CEM [9]): inactive; Activity (CCRF-CEM [18]): Active
C=C(C=O)[C@@H]1CC[C@]2(C(=O)O)CC[C@]3(C)[C@H](CC[C@@H]4[C@@]5(C)Cc6nccnc6C(C)(C)[C@@H]5CC[C@]43C)[C@@H]12,–,–,–,–,–,–,–,–,–,–,5.5,54,100,5.8,0.5,Active,3.6,42.8,2.7,85.1,Activity (CCRF-CEM [19]): Active; Activity (CCRF-CEM [9]): inactive; Activity (CCRF-CEM [20]): Active; Activity (CCRF-CEM [21]): Active; Activity (CCRF-CEM [22]): Active; Activity (CCRF-CEM [23]): Active
C=C(C=O)[C@@H]1CC[C@]2(C(=O)OCc3cn([C@H]4O[C@H](COC(C)=O)[C@@H](OC(C)=O)[C@H](OC(C)=O)[C@H]4OC(C)=O)nn3)CC[C@]3(C)[C@H](CC[C@@H]4[C@@]5(C)Cc6nccnc6C(C)(C)[C@@H]5CC[C@]43C)[C@@H]12 (stereo in doubt),2.3,1.8,1.7,1.6,1.8,2.7,0.75,1.5,1.2,1.5,53.8,56,100,4.1,1,Active,23.9,37.7,5.3,18.1,"efflux ratio [24]: 4.49; Activity (CCRF-CEM [19]): Active; remaining at 2 h, 2 µM [25]: 88.5%; fraction unbound at 10 µM [26]: 0.0017; Activity (CCRF-CEM [20]): Active; remaining at 0.5 h, 2 µM [27]: 95.7%; remaining at 0.5 h, 2 µM [28]: 97.2%; remaining at 0.25 h, 2 µM [29]: 104%; Activity (CCRF-CEM [21]): Active; remaining at 0.5 h [30]: 91.1%; recovery at 1 h, 10 µM [31]: 77.6%; remaining at 0.25 h [32]: 99.9%; remaining at 0.25 h, 2 µM [33]: 96.8%; Activity (CCRF-CEM [22]): Active; Papp at 1 h, 10 µM [34]: 0.12 ×10⁻⁶ cm/s; remaining at 1 h, 2 µM [35]: 58.9%; remaining at 1 h, 2 µM [36]: 88.7%; Activity (CCRF-CEM [23]): Active; remaining at 2 h [37]: 85.2%; remaining at 1 h [38]: 87.8%"
